Measured values reported in patent US4188321A, “25-Desacetyl rifamycins” (Gruppo Lepetit S.p.A., priority 1966, dated 1980).
Converted amounts (≈) assume the structure as drawn. Where two headings read alike, the source gives them in different places.

How the values were obtained:
[1] = solubility in buffer solution; type: physicochemical; settings: pH 7.5, aqueous buffer
Experimental: Said solubilities are given in g. of rifamycin % ml. of buffer solution (pH=7,5 and t=22° C.). DA means desacetyl.

in vivo = settings: mouse

Structure (SMILES)	solubility ([1]; buffer solution, pH = 7,5, 22° C., read-out: Solubility)	LD50 (in vivo; ip, acute toxicity, mice)	solubility ([1]; buffer)	LD50 (in vivo; iv)
COC1C=COC2(C)Oc3c(C)c(O)c4c(O)c(c(C=NN5CCN(C)CC5)c(O)c4c3C2=O)NC(=O)C(C)=CC=CC(C)C(O)C(C)C(O)C(C)C(OC(C)=O)C1C (stereo not shown) [3-(4-methyl-piperazinyl-iminomethyl)-rifamycin SV, reference compound]	2850 µg/mL (≈ 3460 µM)	460 mg/kg		
CCN(CC)Cc1c2c(O)c3c(O)c(C)c4c(c3c1O)C(=O)C(C)(OC=CC(OC)C(C)C(OC(C)=O)C(C)C(O)C(C)C(O)C(C)C=CC=C(C)C(=O)N2)O4 (stereo not shown) [3-diethylaminomethyl-rifamycin SV, reference compound]			420 µg/mL (≈ 536 µM)	
COC1C=COC2(C)Oc3c(C)c(O)c4c(O)c(c(C=O)c(O)c4c3C2=O)NC(=O)C(C)=CC=CC(C)C(O)C(C)C(O)C(C)C(OC(C)=O)C1C (stereo not shown) [3-formyl-rifamycin SV, reference compound]		300 mg/kg	6400 µg/mL (≈ 8820 µM)	
CON=Cc1c2c(O)c3c(O)c(C)c4c(c3c1O)C(=O)C(C)(OC=CC(OC)C(C)C(OC(C)=O)C(C)C(O)C(C)C(O)C(C)C=CC=C(C)C(=O)N2)O4 (stereo not shown) [3-methoximinomethyl-rifamycin SV, reference compound]			150 µg/mL (≈ 199 µM)	
COC1C=COC2(C)Oc3c(C)c(O)c4c(O)c(c(CN5CCCC5)c(O)c4c3C2=O)NC(=O)C(C)=CC=CC(C)C(O)C(C)C(O)C(C)C(OC(C)=O)C1C (stereo not shown) [3-pyrrolidino-methyl-rifamycin SV, reference compound]			60 µg/mL (≈ 76.8 µM)	
COC1C=COC2(C)Oc3c(C)c(O)c4c(O)c(c(C=NN5CCN(C)CC5)c(O)c4c3C2=O)NC(=O)C(C)=CC=CC(C)C(O)C(C)C(O)C(C)C(O)C1C (stereo not shown) [25-DA-3-(4-methyl-piperazinyl-iminomethyl)-rifamycin SV]		850 mg/kg	7600 µg/mL (≈ 9730 µM)	
CCN(CC)Cc1c2c(O)c3c(O)c(C)c4c(c3c1O)C(=O)C(C)(OC=CC(OC)C(C)C(O)C(C)C(O)C(C)C(O)C(C)C=CC=C(C)C(=O)N2)O4 (stereo not shown) [25-DA-3-diethylaminomethyl-rifamycin SV, 25-desacetyl-3-diethylaminomethyl-rifamycin SV]			1260 µg/mL (≈ 1700 µM)	
COC1C=COC2(C)Oc3c(C)c(O)c4c(O)c(c(C=O)c(O)c4c3C2=O)NC(=O)C(C)=CC=CC(C)C(O)C(C)C(O)C(C)C(O)C1C (stereo not shown) [25-DA-3-formyl-rifamycin SV]		550 mg/kg	34300 µg/mL (≈ 50200 µM)	
CON=Cc1c2c(O)c3c(O)c(C)c4c(c3c1O)C(=O)C(C)(OC=CC(OC)C(C)C(O)C(C)C(O)C(C)C(O)C(C)C=CC=C(C)C(=O)N2)O4 (stereo not shown) [25-DA-3-methoximinomethyl-rifamycin SV]		560 mg/kg	340 µg/mL (≈ 477 µM)	
COC1C=COC2(C)Oc3c(C)c(O)c4c(O)c(c(CN5CCCC5)c(O)c4c3C2=O)NC(=O)C(C)=CC=CC(C)C(O)C(C)C(O)C(C)C(O)C1C (stereo not shown) [25-DA-3-pyrrolidino-methyl-rifamycin SV]			2800 µg/mL (≈ 3790 µM)	
CCN(CC)C(=O)COc1cc2c(O)c3c(O)c(C)c4c(c13)C(=O)C(C)(OC=CC(OC)C(C)C(O)C(C)C(O)C(C)C(O)C(C)C=CC=C(C)C(=O)N2)O4 (stereo not shown) [25-DA-rifamycin B diethylamide]				600 mg/kg
